Measurements published in article PMC7901699, “Challenging inflammatory process at molecular, cellular and in vivo levels via some new pyrazolyl thiazolones” (Journal of Enzyme Inhibition and Medicinal Chemistry, 2021).
“Also recorded” adds a separate entry of the source.

Assays:
ovine COX-1 = molecular target: T1, ovine COX-1 (Ovis aries, UniProt P05979); experiment: In vitro COX-1 inhibition assay (colorimetric COX inhibitor screening kit, Cayman); assay type: biochemical; conditions: mean of three determinations
T1 construct: purchased Cayman Chemicals Inc. 560131
T1 sequence (P05979 25-600): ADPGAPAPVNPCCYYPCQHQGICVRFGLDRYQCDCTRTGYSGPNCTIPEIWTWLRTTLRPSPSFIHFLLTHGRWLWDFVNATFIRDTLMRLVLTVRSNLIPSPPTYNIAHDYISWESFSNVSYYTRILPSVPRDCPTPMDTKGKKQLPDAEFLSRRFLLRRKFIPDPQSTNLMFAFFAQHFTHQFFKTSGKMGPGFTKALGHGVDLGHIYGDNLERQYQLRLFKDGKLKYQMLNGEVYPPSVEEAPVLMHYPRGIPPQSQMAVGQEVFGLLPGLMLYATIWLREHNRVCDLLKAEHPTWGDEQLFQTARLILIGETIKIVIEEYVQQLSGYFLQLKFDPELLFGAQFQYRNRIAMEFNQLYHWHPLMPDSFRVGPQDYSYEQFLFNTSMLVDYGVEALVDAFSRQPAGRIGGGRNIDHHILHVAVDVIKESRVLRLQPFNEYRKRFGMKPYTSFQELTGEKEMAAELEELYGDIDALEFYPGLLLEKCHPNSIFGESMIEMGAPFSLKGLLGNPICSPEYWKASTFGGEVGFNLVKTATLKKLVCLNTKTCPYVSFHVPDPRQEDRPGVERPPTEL
Description: Both assays were carried out in compliance with the manufacturer’s instructions and in accordance to prior studies[29]^,[33].
IC50 values (μM) and selectivity indices (SI) were calculated.

THP-1 cells = experiment: Monocyte-to-macrophage differentiation assay, M1 polarisation (PMA then LPS); assay type: cell-based, human
Description: Monocytes were cultured and differentiated as described previously. THP-1 cells (human acute monocytic leukaemia lineage, American Type Culture Collection, Manassas, VA) were seeded at a density of 20 × 10^5 cells/ml. A set of cells were exposed to 25 nM of phorbol myristate-acetate (PMA, Calbiochem, Darmstadt, Germany) for 24 h to drive differentiation. Another set was similarly treated with PMA followed by 100 ng/ml of lipopolysaccharide (LPS, invivogen, San Diego, CA, USA) for 72 h. After incubation, the supernatant was aspirated and the density of the adherent cells was estimated using MTS colorimetric cell viability kit (Abcam, Cambridge, UK). The inhibitory actions of different compounds on the differentiation process were evaluated by pre-incubation with different concentrations of each compound for 6 h. Cell viability after treatment was normalised to the reading after PMA exposure following a 6-h incubation with DMSO. All experiments were conducted in triplicates. A positive control for the effect of COX1/COX2 inhibition on monocyte-to-macrophage differentiation was obtained by treatment with diclofenac. IC50 values for each compound were determined by non-linear regression as the best fit values of the log [inhibitor] vs. response curve using GraphPad Prism software.

[1] = system: PMA/LPS-stimulated THP-1 (M1 macrophages); experiment: Cytotoxicity assay on differentiated M1 macrophages (MTS); assay type: cell-based, human; conditions: PMA 24 h, LPS 24 h, then compound 24 h; up to 100 μM
Description: To confirm that the previous observations were a consequence of interference of the compounds with the differentiation process rather than a reduction in monocyte viability, THP-1 monocytes were incubated with different concentrations of the compound for 30 h. No difference in cell viability was detected. Moreover, the cytotoxic effects of the drugs on differentiated macrophages were evaluated. Following the incubation of THP-1 cells with 25 nM PMA for 24 h and 100 ng/ml LPS for 24 h, the differentiated macrophages were treated with different concentrations of the compounds for 24 h. Cell viability was assessed using MTS colorimetric cell viability kit (Abcam, Cambridge, UK).

COc1ccc(-c2nn(-c3ccccc3)cc2/C=C2\SC(N3CCCCC3)=NC2=O)cc1 [Compound 7, (Z)-5-((3-(4-methoxyphenyl)-1-phenyl-1H-pyrazol-4-yl)methylene)-2-(piperidin-1-yl)thiazol-4(5H)-one] was tested, and the IC50 (ovine COX-1) was 10.3 µM, the IC50 (THP-1 cells; Homo sapiens, THP-1, 6 h pre-incubation, PMA 25 nM 24 h then LPS 100 ng/ml 72 h, MTS, read-out: IC50 inhibition of THP-1 monocyte differentiation into M1 macrophages) was 15 µM and the “Inhibition of THP-1 differentiation into M1 macrophages (in words)” value (THP-1 cells; PMA then LPS, diclofenac as reference) was “potent inhibitory effects on monocyte-to-macrophage differentiation; also recorded: higher potency compared to diclofenac”. For the same compound, the “M1 macrophage cell viability” value [1] was “tended to slightly decrease”.
